Reference: PubChem BioAssay AID248 (DTP/NCI, 2004)
Values joined by “and” are separate entries in the source; they are usually repeats but may differ in a detail not shown here. Equal values may be shown once. Inconclusive results and toxic doses are left out. No stated cut-off is given here; in the data, active means T/C of 150% or more; inactive means T/C below 125%. Square brackets hold non-standard residues; d marks the D form. Peptide text beside a SMILES is read from it. ξ: configuration not given here. Ac5c = NC1(C(=O)O)CCCC1; ξS = NC(CO)C(=O)O

System: L1210 leukemia ip in BDF1 mice, survival T/C
Assay: NCI In Vivo Anticancer Drug Screen. Data for tumor model L1210 Leukemia (intraperitoneal) in B6D2F1 (BDF1) mice
Details: endpoint: mean survival time, higher = longer survival
Method in brief: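 Mice bearing the transplanted tumor received compound or vehicle. Survival of the treated group was divided by that of the vehicle-treated control group to give the ratio.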

[1] = dose: 100.0 mg/kg/injection, schedule: Q01DX001 (ip), vehicle: saline
[2] = dose: 100.0 mg/kg/injection, schedule: Q04DX003 (ip), vehicle: saline
[3] = dose: 200.0 mg/kg/injection, schedule: Q04DX003 (ip), vehicle: saline
[4] = dose: 400.0 mg/kg/injection, schedule: Q04DX003 (ip), vehicle: saline
[5] = dose: 100.0 mg/kg/injection, schedule: Q04DX003 (ip), vehicle: saline with Tween-80
[6] = dose: 200.0 mg/kg/injection, schedule: Q04DX003 (ip), vehicle: saline with Tween-80
[7] = dose: 400.0 mg/kg/injection, schedule: Q04DX003 (ip), vehicle: saline with Tween-80
[8] = dose: 100.0 mg/kg/injection, schedule: Q04DX002 (ip), vehicle: Klucel (hydroxypropylcellulose) (HPC)
[9] = dose: 200.0 mg/kg/injection, schedule: Q04DX002 (ip), vehicle: Klucel (hydroxypropylcellulose) (HPC)
[10] = dose: 100.0 mg/kg/injection, schedule: Q01DX001 (ip), vehicle: saline with Tween-80
[11] = dose: 200.0 mg/kg/injection, schedule: Q01DX001 (ip), vehicle: saline
[12] = dose: 400.0 mg/kg/injection, schedule: Q01DX001 (ip), vehicle: saline
[13] = dose: 100.0 mg/kg/injection, schedule: Q01DX009 (ip), vehicle: saline with Tween-80
[14] = dose: 200.0 mg/kg/injection, schedule: Q01DX009 (ip), vehicle: saline with Tween-80
[15] = dose: 400.0 mg/kg/injection, schedule: Q01DX009 (ip), vehicle: saline with Tween-80
[16] = dose: 50.0 mg/kg/injection, schedule: Q01DX009 (ip), vehicle: saline with Tween-80
[17] = dose: 100.0 mg/kg/injection, schedule: Q01DX001 (ip), vehicle: Klucel (hydroxypropylcellulose) (HPC)
[18] = dose: 200.0 mg/kg/injection, schedule: Q01DX001 (ip), vehicle: Klucel (hydroxypropylcellulose) (HPC)
[19] = dose: 100.0 mg/kg/injection, schedule: Q04DX002 (ip), vehicle: saline with Tween-80
[20] = dose: 200.0 mg/kg/injection, schedule: Q04DX002 (ip), vehicle: saline with Tween-80
[21] = dose: 400.0 mg/kg/injection, schedule: Q04DX002 (ip), vehicle: saline with Tween-80

Measured: T/C

CC(=O)NCCCc1c(C)nc(NC(C)=O)[nH]c1=O
inactive: dose: 25.0 mg/kg/injection, schedule: Q01DX001 (ip), vehicle: saline 94 % of control | dose: 50.0 mg/kg/injection, schedule: Q01DX001 (ip), vehicle: saline 108 % of control | [1] 102 % of control

CCN(CC)CCOC(=O)C(S)(c1ccccc1)c1ccccc1
inactive: dose: 75.0 mg/kg/injection, schedule: Q01DX001 (ip), vehicle: other 100 % of control

Cn1cc(C(N)=O)ccc1=N
inactive: [2] 113 % of control | [3] 98 % of control | [4] 106 % of control

Nc1ccc(NS(=O)(=O)CS(=O)(=O)Nc2ccc(N)cc2)cc1
inactive: dose: 10.0 mg/kg/injection, schedule: Q01DX001 (ip), vehicle: saline 96 % of control | dose: 20.0 mg/kg/injection, schedule: Q01DX001 (ip), vehicle: saline 101 % of control | dose: 40.0 mg/kg/injection, schedule: Q01DX001 (ip), vehicle: saline 101 % of control

COc1cc(Br)c(CC2c3cc(OCc4ccccc4)c(OC)cc3CCN2C)cc1OC (centres undefined)
inactive: dose: 100.0 mg/kg/injection, schedule: Q04DX003 (ip), vehicle: acetone 112 % of control

CC(C)c1ccccc1OS(=O)(=O)c1ccccc1
inactive: [5] 91 % of control | [6] 95 % of control | [7] 98 % of control

Cc1ccc(S(=O)(=O)[n+]2ccc(C)cc2)cc1
inactive: [8] 98 % of control | [9] 95 % of control

Cc1nc(N)[nH]c(=O)c1CCCNC(=O)c1ccc(CBr)cc1
inactive: dose: 25.0 mg/kg/injection, schedule: Q01DX001 (ip), vehicle: saline with Tween-80 95 % of control | dose: 50.0 mg/kg/injection, schedule: Q01DX001 (ip), vehicle: saline with Tween-80 88 % of control | [10] 97 % of control

NC(CO)C(=O)NC1(C(=O)O)CCCC1 (centres undefined) (H-[ξS]-[Ac5c]-OH)
inactive: [1] 100 % of control | [11] 107 % of control | [12] 107 % of control

O=C(c1ccccc1)C1CC1c1ccccc1 (centres undefined)
inactive: dose: 75.0 mg/kg/injection, schedule: Q01DX001 (ip), vehicle: Klucel (hydroxypropylcellulose) (HPC) 96 % of control | dose: 75.0 mg/kg/injection, schedule: Q04DX002 (ip), vehicle: saline with Tween-80 105 % of control | [2] 101 % of control | dose: 150.0 mg/kg/injection, schedule: Q01DX001 (ip), vehicle: Klucel (hydroxypropylcellulose) (HPC) 100 % of control | dose: 150.0 mg/kg/injection, schedule: Q04DX002 (ip), vehicle: saline with Tween-80 91 % of control | [3] 93 % of control | dose: 300.0 mg/kg/injection, schedule: Q01DX001 (ip), vehicle: Klucel (hydroxypropylcellulose) (HPC) 102 % of control | dose: 300.0 mg/kg/injection, schedule: Q04DX002 (ip), vehicle: saline with Tween-80 98 % of control | [4] 103 % of control

CCC1N2CCc3cc(OC)c(OC)cc3C2CCC1(O)Cc1ccccn1 (centres undefined)
inactive: dose: 100.0 mg/kg/injection, schedule: Q04DX003 (ip), vehicle: carboxymethylcellulose (CMC) 101 % of control | dose: 200.0 mg/kg/injection, schedule: Q04DX003 (ip), vehicle: carboxymethylcellulose (CMC) 101 % of control

COC(=O)C(Nc1ccc([N+](=O)[O-])cc1[N+](=O)[O-])C(O)c1ccccc1 (centres undefined)
inactive: [1] 98 % of control | [11] 111 % of control | [12] 93 % of control

COC(=O)c1cc(C(C)=O)ccc1OC(=O)c1ccccc1
inactive: [13] 98 % of control | [5] 88 % of control | [14] 94 % of control | [6] 90 % of control | [15] 100 % of control | [7] 108 % of control

COc1cc(/C=N\NC(=O)CNC(=O)Nc2cccc(Cl)c2)ccc1O
inactive: [13] 90 % of control | [14] 87 % of control

NC(N)=Nc1ccccc1
inactive: [16] 107 % of control | [13] 101 % of control | [2] 101 % of control | [14] 104 % of control | [3] 115 % of control

COc1ccc(NNP(=O)(CCl)N(CCCl)CCCl)cc1 (centres undefined)
inactive: [17] 104 % of control | [18] 108 % of control | dose: 400.0 mg/kg/injection, schedule: Q01DX001 (ip), vehicle: Klucel (hydroxypropylcellulose) (HPC) 108 % of control

O=S(=O)(c1ccccc1)c1cccs1
inactive: [16] 101 % of control | [13] 96 % of control | [14] 105 % of control

O=C(COc1ccc([N+](=O)[O-])cc1)Nc1ccc(S(=O)(=O)F)cc1
inactive: [1] 103 % of control | [11] 107 % of control | [12] 103 % of control

CCOC(=O)C1(c2ccccc2)CCN(CCC(=O)c2ccc(F)cc2)CC1
inactive: [17] 98 % of control | [18] 95 % of control

O=S(=O)(CCCl)Cc1ccccc1
inactive: [19] 115 % of control | [20] 94 % of control

C=CCNC(=O)c1ccccc1OCC(=O)O
inactive: dose: 100.0 mg/kg/injection, schedule: Q01DX009 (ip), vehicle: gum acacia 93 % of control | dose: 100.0 mg/kg/injection, schedule: Q04DX003 (ip), vehicle: gum acacia 103 % of control | dose: 200.0 mg/kg/injection, schedule: Q01DX009 (ip), vehicle: gum acacia 88 % of control | dose: 200.0 mg/kg/injection, schedule: Q04DX003 (ip), vehicle: gum acacia 100 % of control | dose: 400.0 mg/kg/injection, schedule: Q01DX009 (ip), vehicle: gum acacia 94 % of control | dose: 400.0 mg/kg/injection, schedule: Q04DX003 (ip), vehicle: gum acacia 97 % of control

COC(=O)CC(=O)c1ccc(S(=O)(=O)F)cc1
inactive: dose: 100.0 mg/kg/injection, schedule: Q01DX009 (ip), vehicle: Klucel (hydroxypropylcellulose) (HPC) 104 % of control | dose: 100.0 mg/kg/injection, schedule: Q04DX003 (ip), vehicle: Klucel (hydroxypropylcellulose) (HPC) 98 % of control | dose: 200.0 mg/kg/injection, schedule: Q01DX009 (ip), vehicle: Klucel (hydroxypropylcellulose) (HPC) 97 % of control | dose: 200.0 mg/kg/injection, schedule: Q04DX003 (ip), vehicle: Klucel (hydroxypropylcellulose) (HPC) 96 % of control | dose: 400.0 mg/kg/injection, schedule: Q01DX009 (ip), vehicle: Klucel (hydroxypropylcellulose) (HPC) 101 % of control | dose: 400.0 mg/kg/injection, schedule: Q04DX003 (ip), vehicle: Klucel (hydroxypropylcellulose) (HPC) 100 % of control

CCOC(=O)C(C(=O)OCC)C(C)(C)c1ccccc1
inactive: dose: 100.0 mg/kg/injection, schedule: Q01DX009 (ip), vehicle: saline 104 % of control | dose: 200.0 mg/kg/injection, schedule: Q01DX009 (ip), vehicle: saline 103 % of control | dose: 400.0 mg/kg/injection, schedule: Q01DX009 (ip), vehicle: saline 101 % of control

COc1ccc(C(=O)CN2C=C(C(=O)c3cc4ccccc4n3S(=O)(=O)c3ccccc3)CCC2)cc1
inactive: [19] 94 % of control | [20] 87 % of control | [21] 87 % of control

CCCCCCP(=O)(CCCCCC)C1CCCC1
inactive: [5] 91 % of control | [6] 92 % of control

O=C(Nc1ccc([N+](=O)[O-])cc1Cl)OCCCl
inactive: [10] 94 % of control | [13] 98 % of control | [19] 97 % of control | [5] 96 % of control | dose: 200.0 mg/kg/injection, schedule: Q01DX001 (ip), vehicle: saline with Tween-80 98 % of control | [14] 87 % of control and 89 % of control | [20] 97 % of control | [6] 86 % of control | dose: 400.0 mg/kg/injection, schedule: Q01DX001 (ip), vehicle: saline with Tween-80 87 % of control | [15] 91 % of control | [21] 94 % of control

COc1ccc(C2OCC(CCl)O2)cc1 (centres undefined)
inactive: dose: 55.0 mg/kg/injection, schedule: Q01DX Z (ip), vehicle: methylcellulose (MC) 109 % of control | dose: 83.0 mg/kg/injection, schedule: Q01DX Z (ip), vehicle: methylcellulose (MC) 103 % of control | dose: 125.0 mg/kg/injection, schedule: Q01DX Z (ip), vehicle: methylcellulose (MC) 101 % of control

CCCS(=O)(=O)N1CC(C)OC(C)C1 (centres undefined)
inactive: [8] 91 % of control | [9] 91 % of control | dose: 400.0 mg/kg/injection, schedule: Q04DX002 (ip), vehicle: Klucel (hydroxypropylcellulose) (HPC) 89 % of control
